In US10179143B2, “Anti-viral azide containing compounds” (LIFE TECHNOLOGIES CORPORATION, priority 2010, dated 2019):

Assays:
[1] = tested on: Nuclear-GFP BacMam 2.0 Virus; test: Infectivity of PTM analog-labeled Nuclear-GFP BacMam 2.0 virus in U2-OS cells (nuclear-GFP expression); assay type: cell-based, baculovirus; details: BacMam virus labeled in Sf9 insect cells with 50 μM analog for 4 days; 20 or 50 uL virus on U2-OS cells overnight; FIG. 5
Source text: Inhibition of insect cell baculovirus infectivity with azido fatty acid analogs: The BacMam system uses a modified insect cell virus (baculovirus) as a vehicle to efficiently deliver and express genes in mammalian cells. A Nuclear-GFP BacMam 2.0 expression system (Invitrogen, C10602) was used as a model to determine if PTM analog labeling of the virus would affect mammalian cell infectivity. Viruses were labeled with various PTM analogs and used to infect mammalian cells. Infectivity was determined by the expression of nuclear-GFP, as viral entry into the cell is required for expression of GFP protein. […]
Characterization of BacMam virus production: To verify, quantitate, and normalize the amount of enriched viruses obtained from insect cell supernatants, samples of each virus were lysed in SDS sample preparation buffer (SPB), sonicated with a probe tip sonicator, and heated at 90C to completely dissolve the viral proteins. Viral protein concentrations of the lysates were then determined. […]
Mammalian cell infection protocol: To determine if the PTM analog-labeled viruses retain the ability to infect mammalian cells, 50,000 U2-OS cells (human osteosarcoma cell line) were plated onto a 6 well-chamber glass bottom plate. […] The following day cells were imaged on AMG EVOS fluorescence microscope at 10× or 20× magnification using both white light and GFP filters (FIG. 5). […]

HIV = test: Luciferase reporter assay of infectivity of azide-labeled HIV on TZM/BI reporter cells; assay type: cell-based, HIVNL4-3; details: virus produced in CEMx174 cells spiked with the compound (fatty acids 50-100 μM, sugars 20-40 μM); normalized to p24; 12 hours on TZM/BI; single cycle replication system; FIGS. 3 and 4
Procedure: CEMx174 cells were transfected with HIVNL4-3 in a T-150 flask and the virus production was monitored by reverse transcriptase activity until peak virus production occurred (usually 7 to 9 days post transfection). Prior to transfection, the CEMx174 cells were spiked with the following azide-modified biomolecules: 15-azidopentadecanoic acid (50-100 μM), 12-azidododecanoic acid (50-100 μM), tetraacetylated N-azidoacetylgalactosamine (20-40 μM), and tetraacetylated N-azidoacetyl-D-mannosamine (20-40 μM).
Labeled virus was also obtained from the transfected cells. More specifically, virus-containing supernatants were collected and virus was purified through 20% sucrose as previously described (Graham, D.R. et al., Proteomics 2008, 8:4919-30). The purified virus was then mixed with the CLICK-IT® detection reagent, tetramethylrhodamine (TAMRA) alkyne and the CLICK-IT® Protein Reaction Buffer Kit (Invitrogen, Carlsbad, Calif.). Virus samples were run on a one-dimensional gel to reveal azide-labeled viral proteins (FIG. 2). […]
To examine the effect of the azide-modified biomolecules on the innate biology of the virus, the azide-labeled virus from the transfected cells was isolated and tested in cell infection studies. […] Viral infectivity was determined by measuring cellular luciferase activities with two different luciferase reagents.

SMILES | nuclear-GFP expression in U2-OS cells (viral entry) [1] | impact on the infectivity of the virus (cellular luciferase activities) (HIV)
[N-]=[N+]=NCCCCCCCCCCCCCCC(=O)O [15-azidopentadecanoic acid] | no nuclear-GFP expression | –
[N-]=[N+]=NCCCCCCCCCCCC(=O)O [12-azidododecanoic acid] | no nuclear-GFP expression | profound impact on the infectivity of the virus
